{
  "source": "patent US9144569B2",
  "about": "“Methods of administering an aromatase inhibitor, prostaglandin and GnRH for regulating ovulation in cattle” (UNIVERSITY OF SASKATCHEWAN, priority 2010, dated 2015)",
  "key": {"[1]": {"system": "Hereford-cross beef heifers", "experiment": "Example I: single intravenous dose of letrozole in heifers, ovarian ultrasonography (follicle and CL dynamics)", "format": "in vivo, cattle", "experimental": "Hereford-cross beef heifers, 14 to 20 months of age and weighing between 295 and 450 kg, were chosen from a herd of 50 heifers maintained in outdoor corrals at the University of Saskatchewan Goodale Research Farm (52° North and 106° West). Heifers were fed alfalfa/grass hay and grain to gain approximately 1.3 Kg per day and had water ad libitum during the experimental period from July to October. Heifers were initially examined by transrectal ultrasonography (7.5 MHz linear-array transducer, Aloka SSD-900; Tokyo, Japan) to confirm that they were postpubertal by observing the presence of a CL [33].\nHeifers in which a CL was detected during the initial examination were given […] cloprostenol (PGF, Estrumate™, Schering-Plough Animal Health, Pointe-Claire, QC, Canada) intramuscularly (im) to induce regression of the CL and to synchronize ovulation. Heifers were examined daily by transrectal ultrasonography to detect ovulation. Transvaginal ultrasound-guided follicular aspiration of follicles ≧5 mm was performed five to eight days after ovulation to synchronize wave emergence. Heifers were examined daily by transrectal ultrasonography to detect follicular wave emergence, which was expected 1 to 1.5 days after follicular ablation. Four days after follicular ablation (approximately 2.5 days after follicular wave emergence), and at the time follicular dominance becomes apparent, heifers were assigned randomly to the following treatment groups and given a single intravenous dose of 1) 500 μg/kg of letrozole (high dose group, n=9), 2) 250 μg/kg of letrozole (medium dose group, n=10), 3) 125 μg/kg of letrozole (low dose group, n=10), or 4) 20 ml of phosphate buffered saline (PBS control group, n=10). For practical purposes, the dose of letrozole was calculated based on an average weight of 400 kg for all heifers. The average oral dose used in women (2.5-5 mg per day for 5 days) was used to estimate the medium dose for cattle. The high and low doses were set as double and half the medium dose, respectively. The day of treatment was defined as Day 0. For intravenous injection, letrozole was prepared in 95% ethanol at a final concentration of 5 mg per ml, resulting in an injection volume of 10-40 ml. The experiment was performed in four replicates (n=2-3 per group per replicate) and each heifer was used only once.\nThe observations from ultrasound examination were recorded on a sketch sheet in which each ovary and its structures (CL and follicles ≧4 mm in diameter) were represented in size and location. Ovulation was defined as the disappearance of any follicle ≧8 mm between two consecutive daily examinations, and was confirmed by the subsequent development of a CL [33]. Follicular wave emergence was defined retrospectively as the day when the dominant follicle was first identified at a diameter of 4 or 5 mm. If the dominant follicle was not identified until it reached 6 or 7 mm, the previous day was considered day of the follicular wave emergence. The dominant follicle of a wave was defined as the largest antral follicle of that wave after deviation, and the first subordinate follicle as the second largest antral follicle of that wave. The day of onset of follicular and luteal regression was defined as the first day of an apparent constant decrease in follicular and luteal diameters, respectively.\nStatistical analyses were done using the Statistical Analysis System software package (SAS Learning Edition 9.1, 2006; SAS Institute Inc., Cary, N.C., USA). Time-series hormone data, plasma letrozole concentration, and follicular diameter profiles were analyzed by repeated measures, using the PROC MIXED procedure. The main effects were treatment (high, medium and low dose, and control), time, and their interactions."}, "[2]": {"experiment": "Example II: plasma letrozole concentration during 3-day regimen (HPLC/MS)", "format": "in vivo, cattle", "conditions": "for plasma letrozole concentration, overall mean: 85 μg/kg/day iv", "experimental": "Four days after follicular ablation, heifers were given 500 μg of cloprostenol (PGF, Estrumate, Schering-Plough Animal Health, Pointe-Claire, QC, Canada) intramuscularly (im) to induce regression of the CL and to synchronize ovulation. The experiment was performed in two replicates (n=20-27 per replicate) and each heifer was used only once. In replicate 1, heifers were assigned randomly at the time of ovulation (Day 0) to the following groups and given a 3-day regimen of letrozole from Days 1 to 3 (n=5), Days 3 to 5 (n=5), Days 5 to 7 (n=5), or no treatment (control group, n=5). In replicate 2, heifers were similarly assigned to groups and given letrozole from Days 1 to 3, (n=5), Days 3 to 5 (n=4), or Days 5 to 7 (n=4), but untreated control heifers were arranged in three sub-groups to serve as contemporaneous controls for each letrozole-group during intensive blood sampling periods (i.e., control Days 1 to 3, n=4; control Days 3 to 5, n=4; and control Days 5 to 7, n=5). For practical purposes, the total dose of letrozole (250 μg/kg) was calculated on the basis of an average weight of 350 kg for all heifers and administered intravenously in daily divided doses over 3 days (85 μg/kg per day). For intravenous injection, letrozole was prepared in 95% ethanol to a final concentration of 5 mg/ml, resulting in an injection volume of 6 mL/day.\nBlood samples were collected by jugular or coccygeal venipuncture into 10 ml heparinised, vacuum tubes (Vacutainer tubes; Becton Dickinson Vacutainer Systems, Franklin Lakes, N.J., USA). Blood samples were collected daily from pre-treatment ovulation to post-treatment ovulation. In replicate 1, additional samples were collected from letrozole-treated heifers every 12 hours from the beginning of treatment to first wave emergence. In replicate 2, heifers were sampled at 15 minute intervals for the first 8 hours after the second dose of letrozole (i.e., second day of treatment) using an indwelling jugular catheter, as described previously. Blood samples were centrifuged at 1500×g for 20 minutes, and plasma was separated and stored in plastic tubes at −20° C.\nPlasma concentrations of letrozole were determined from samples collected every 12 hours from pre-treatment to one day after cessation of treatment using high performance liquid chromatographytandem mass spectrometry (HPLC/MS) as described in Chapter 4, Section 4.3.6."}, "[3]": {"conditions": "85 μg/kg/day iv for 3 days, all three groups"}},
  "note": "Marks after values point to notes of the source that are not given here.",
  "data": [
    {"compound": "N#Cc1ccc(C(c2ccc(C#N)cc2)n2cncn2)cc1", "note": "[Letrozole, letrozole]", "values": [
      {"measurement": "number of heifers in which the extant dominant follicle ovulated", "setting": "[1]; high dose 500 μg/kg iv", "value": "5/9"},
      {"measurement": "number of heifers in which the extant dominant follicle ovulated", "setting": "[1]; low dose 125 μg/kg iv", "value": "7/10"},
      {"measurement": "number of heifers in which the extant dominant follicle ovulated", "setting": "[1]; medium dose 250 μg/kg iv", "value": "5/10"},
      {"measurement": "dominant follicle diameter profile compared to control heifers", "setting": "[1]; single iv dose, all dose groups combined (n=29) vs saline controls, P<0.04", "value": "larger"},
      {"measurement": "diameter to which the dominant follicle grew", "setting": "[1]; single iv dose, dose groups combined, control 9.7±0.55, mean±SEM", "value": "11.0±0.32", "unit": "mm"},
      {"measurement": "Treatment to onset of regression of extant dominant follicle", "setting": "[1]; single iv dose, doses combined, n=13, mean±SEM", "value": "8.7 ± 0.47^a days"},
      {"measurement": "Treatment to ovulation of extant dominant follicle", "setting": "[1]; single iv dose, doses combined, n=16, mean±SEM", "value": "9.0 ± 0.42^a days"},
      {"measurement": "Treatment to wave emergence", "setting": "[1]; single iv dose, low-, medium-, high-dose combined, n=29, mean±SEM", "value": "7.5 ± 0.27^a days"},
      {"measurement": "time after initiation of treatment by which plasma letrozole was elevated", "setting": "[2]; [3]", "value": "≤ 12", "unit": "h"},
      {"measurement": "time by which plasma letrozole declined to approximately half peak values", "setting": "[2]; [3]", "value": "≤ 108", "unit": "h"},
      {"measurement": "time by which plasma letrozole reached peak levels", "setting": "[2]; [3]", "value": "≤ 60", "unit": "h"},
      {"measurement": "plasma letrozole concentration, overall mean", "setting": "[2]; Days 1 to 3", "value": "68.6 ± 4.79", "unit": "ng/mL"},
      {"measurement": "plasma letrozole concentration, overall mean", "setting": "[2]; Days 3 to 5", "value": "43.9 ± 4.75", "unit": "ng/mL"},
      {"measurement": "plasma letrozole concentration, overall mean", "setting": "[2]; Days 5 to 7", "value": "55.6 ± 4.75", "unit": "ng/mL"},
      {"measurement": "mean circulating level of letrozole during the first 96 hours", "setting": "[2]; 250 μg/kg, 3-day protocol", "value": "60.8 ± 3.36", "unit": "ng/mL"},
      {"measurement": "concentration at 96 hours", "setting": "[2]; female, bovine, plasma, intravenous, 85 μg/kg per day, 250 μg/kg divided in a 3-day regimen, read-out: mean concentration of letrozole in the circulation at 96 hours", "value": "51.6 ± 4.33", "unit": "ng/mL"}
    ]}
  ]
}
